Legend:
Experiment in all cases: Bliss excess, mean over the matrix (fraction); higher = more synergy
ARH-77 (Non-Cancerous) = system: ARH-77 (Non-Cancerous)
How it was run: (§1)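 After 24 hours at 37°C and 5% CO2 in 1536-well plates, cells in DMEM/F12 or RPMI plus 10% FBS received two-drug dose matrices for 72 hours. Viability came from CellTiter-Glo 2.0 luminescence and was scaled as inhibition, anchored at 0 by vehicle wells and at 1 by blank wells. Combination Emax is taken as the second-highest inhibition in the matrix, and Bliss excess as the observed combination effect less EA + EB − EA·EB, with EA and EB the single-agent effects.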

[1] = system: CCK-81 (Colorectal Carcinoma)
How it was run: as §1

[2] = system: ECC10 (Gastric Carcinoma)
How it was run: as §1

LN-405 (Glioblastoma) = system: LN-405 (Glioblastoma)
How it was run: as §1

[3] = system: NCI-H64 (Small Cell Lung Carcinoma)
How it was run: as §1

[4] = system: VCaP (Prostate Carcinoma)
How it was run: as §1

| Compound | Bliss excess (ARH-77 (Non-Cancerous)) | Bliss excess [1] | Bliss excess [2] | Bliss excess (LN-405 (Glioblastoma)) | Bliss excess [3] | Bliss excess [4] |
| --- | --- | --- | --- | --- | --- | --- |
| COc1cccc2c1C(=O)c1c(O)c3c(c(O)c1C2=O)C[C@@](O)(C(=O)CO)C[C@@H]3O[C@H]1C[C@H](N)[C@H](O)[C@H](C)O1 [Doxorubicin] + Cc1cc2ncnn2cc1Nc1ncc2c(n1)n(C1CCOCC1)c(=O)n2C [AZD7648] (first compound max 1 µM, 7x7, partner max 10 µM) | 0.0783 | 0.0481 | 0.0602 | -0.0125 | 0.0063 | 0.0275 |
| COc1cc2ncnc(Nc3ccc(F)c(Cl)c3)c2cc1OCCCN1CCOCC1 [Gefitinib] + CC(C)n1c(=O)n(C)c2cnc3cc(F)c(-c4ccc(OCCCN5CCCCC5)nc4)cc3c21 [AZD1390] (first compound max 10 µM, 7x7, partner max 0.3 µM) | -0.0785 | -0.072 | -0.0231 | -0.076 | -0.022 | -0.0429 |
| CS(=O)(=O)CCNCc1ccc(-c2ccc3ncnc(Nc4ccc(OCc5cccc(F)c5)c(Cl)c4)c3c2)o1 [Lapatinib] + C[C@@H](Oc1cc(-c2cnn(C3CCNCC3)c2)cnc1N)c1c(Cl)ccc(F)c1Cl [Crizotinib] (first compound max 10 µM, 7x7, partner max 10 µM) | -0.0445 | -0.0255 | -0.0434 | -0.0158 | -0.0564 | -0.0653 |
| CC(=O)c1c(C)c2cnc(Nc3ccc(N4CCNCC4)cn3)nc2n(C2CCCC2)c1=O [Palbociclib] + CC1(C)CCC(CN2CCN(c3ccc(C(=O)NS(=O)(=O)c4ccc(NCC5CCOCC5)c([N+](=O)[O-])c4)c(Oc4cnc5[nH]ccc5c4)c3)CC2)=C(c2ccc(Cl)cc2)C1 [Venetoclax] (first compound max 10 µM, 7x7, partner max 1 µM) | 0.0762 | -0.0761 | 0.0269 | -0.0391 | -0.0185 | -0.0076 |
| CC(=O)c1c(C)c2cnc(Nc3ccc(N4CCNCC4)cn3)nc2n(C2CCCC2)c1=O [Palbociclib] + Cc1c2c(nn1C)CSCc1cc(n(C)n1)CSc1cc(c3ccccc3c1)OCCCc1c(C(=O)O)n(C)c3c-2c(Cl)ccc13 [AZD5991] (first compound max 10 µM, 7x7, partner max 1 µM) | -0.0248 | 0.0565 | 0.0435 | -0.0445 | -0.0049 | -0.0284 |
| CC(=O)c1c(C)c2cnc(Nc3ccc(N4CCNCC4)cn3)nc2n(C2CCCC2)c1=O [Palbociclib] + Cn1cnc2c(F)c(Nc3ccc(Br)cc3Cl)c(C(=O)NOCCO)cc21 [Selumetinib] (first compound max 10 µM, 7x7, partner max 10 µM) | -0.0147 | 0.0832 | -0.0111 | -0.0566 | -0.014 | -0.012 |
| COc1cccc(OCCCN)c1-c1cc(Nc2cnc(C#N)cn2)n[nH]1 [Prexasertib] + C=CCn1c(=O)c2cnc(Nc3ccc(N4CCN(C)CC4)cc3)nc2n1-c1cccc(C(C)(C)O)n1 [AZD1775] (first compound max 1 µM, partner max 1 µM) | 0.0493 | 0.0523 | 0.115 | 0.0469 | 0.0127 | 0.022 |
| COc1cccc(OCCCN)c1-c1cc(Nc2cnc(C#N)cn2)n[nH]1 [Prexasertib] + CCc1c2c(nc3ccc(O)cc13)-c1cc3c(c(=O)n1C2)COC(=O)[C@]3(O)CC [SN-38] (first compound max 1 µM, 7x7, partner max 0.3 µM) | -0.0304 | -0.0968 | 0.0145 | 0.0786 | 0.0021 | -0.0541 |
| COc1cccc(OCCCN)c1-c1cc(Nc2cnc(C#N)cn2)n[nH]1 [Prexasertib] + CN(C)CCCOc1ccc(-c2ccc3ncc4c(c3c2)n(C2CCOCC2)c(=O)n4C)cn1 [AZD0156] (first compound max 1 µM, 7x7, partner max 1 µM) | 0.0018 | -0.0133 | 0.0071 | 0.0013 | -0.0359 | -0.0463 |
| COc1cccc(OCCCN)c1-c1cc(Nc2cnc(C#N)cn2)n[nH]1 [Prexasertib] + C[C@@H]1COCCN1C2=NC(=NC(=C2)C3(CC3)[S@](=N)(=O)C)C4=C5C=CNC5=NC=C4 [AZD6738] (first compound max 1 µM, 7x7, partner max 10 µM) | 0.0006 | -0.0277 | 0.0929 | -0.136 | -0.0184 | -0.0267 |
| COc1cccc(OCCCN)c1-c1cc(Nc2cnc(C#N)cn2)n[nH]1 [Prexasertib] + Cc1cc2ncnn2cc1Nc1ncc2c(n1)n(C1CCOCC1)c(=O)n2C [AZD7648] (first compound max 1 µM, 7x7, partner max 10 µM) | -0.0015 | -0.0134 | 0.006 | -0.017 | -0.0242 | -0.0509 |
| COc1cccc(OCCCN)c1-c1cc(Nc2cnc(C#N)cn2)n[nH]1 [Prexasertib] + O=C(c1cc(Cc2n[nH]c(=O)c3ccccc23)ccc1F)N1CCN(C(=O)C2CC2)CC1 [Olaparib] (first compound max 1 µM, 7x7, partner max 10 µM) | -0.0485 | -0.12 | -0.0685 | 0.0837 | -0.0438 | -0.041 |
| COc1cc2c(cc1OCCCCCOc1cc3c(cc1OC)C(=O)N1C=C(C)C[C@H]1C=N3)N=C[C@@H]1CC(C)=CN1C2=O [SG3199] + O=C(c1cc(Cc2n[nH]c(=O)c3ccccc23)ccc1F)N1CCN(C(=O)C2CC2)CC1 [Olaparib] (first compound max 0.001 µM, 7x7, partner max 10 µM) | -0.0466 | 0.0003 | -0.0238 | 0.0323 | -0.0539 | -0.0455 |
| CCc1c2c(nc3ccc(O)cc13)-c1cc3c(c(=O)n1C2)COC(=O)[C@]3(O)CC [SN-38] + CN(C)CCCOc1ccc(-c2ccc3ncc4c(c3c2)n(C2CCOCC2)c(=O)n4C)cn1 [AZD0156] (first compound max 0.3 µM, 7x7, partner max 1 µM) | 0.0037 | 0.135 | -0.143 | -0.0028 | -0.0365 | -0.018 |
| CCc1c2c(nc3ccc(O)cc13)-c1cc3c(c(=O)n1C2)COC(=O)[C@]3(O)CC [SN-38] + O=C(c1cc(Cc2n[nH]c(=O)c3ccccc23)ccc1F)N1CCN(C(=O)C2CC2)CC1 [Olaparib] (first compound max 0.3 µM, 7x7, partner max 10 µM) | 0.0446 | 0.0414 | 0.119 | -0.0524 | 0.101 | 0.104 |
| C[C@@H](c1ccc2nccn2c1)n1nnc2ncc(-c3cnn(C)c3)nc21 [Savolitinib] + CC1(C)CCC(CN2CCN(c3ccc(C(=O)NS(=O)(=O)c4ccc(NCC5CCOCC5)c([N+](=O)[O-])c4)c(Oc4cnc5[nH]ccc5c4)c3)CC2)=C(c2ccc(Cl)cc2)C1 [Venetoclax] (first compound max 1 µM, 7x7, partner max 1 µM) | -0.0092 | -0.0615 | 0.0258 | -0.0464 | 0.0032 | -0.0325 |
| C[C@@H](c1ccc2nccn2c1)n1nnc2ncc(-c3cnn(C)c3)nc21 [Savolitinib] + Cc1c2c(nn1C)CSCc1cc(n(C)n1)CSc1cc(c3ccccc3c1)OCCCc1c(C(=O)O)n(C)c3c-2c(Cl)ccc13 [AZD5991] (first compound max 1 µM, 7x7, partner max 1 µM) | -0.0181 | -0.0402 | 0.0229 | 0.0023 | -0.021 | -0.0422 |
| Cn1cnc2c(F)c(Nc3ccc(Br)cc3Cl)c(C(=O)NOCCO)cc21 [Selumetinib] + C=CCn1c(=O)c2cnc(Nc3ccc(N4CCN(C)CC4)cc3)nc2n1-c1cccc(C(C)(C)O)n1 [AZD1775] (first compound max 10 µM, partner max 1 µM) | -0.0518 | -0.0167 | -0.0058 | -0.0962 | -0.005 | -0.063 |
| Cn1cnc2c(F)c(Nc3ccc(Br)cc3Cl)c(C(=O)NOCCO)cc21 [Selumetinib] + CC(C)n1c(=O)n(C)c2cnc3cc(F)c(-c4ccc(OCCCN5CCCCC5)nc4)cc3c21 [AZD1390] (first compound max 10 µM, 7x7, partner max 0.3 µM) | -0.007 | 0.0157 | 0.0038 | -0.0518 | -0.0279 | -0.0387 |
| Cn1cnc2c(F)c(Nc3ccc(Br)cc3Cl)c(C(=O)NOCCO)cc21 [Selumetinib] + CCN(CCO)CCCOc1ccc2c(Nc3cc(CC(=O)Nc4cccc(F)c4)[nH]n3)ncnc2c1 [AZD2811] (first compound max 10 µM, 7x7, partner max 1 µM) | 0.0498 | 0.0101 | -0.094 | -0.0367 | 0.0312 | -0.0336 |
| Cn1cnc2c(F)c(Nc3ccc(Br)cc3Cl)c(C(=O)NOCCO)cc21 [Selumetinib] + C[C@@H]1COCCN1C2=NC(=NC(=C2)C3(CC3)[S@](=N)(=O)C)C4=C5C=CNC5=NC=C4 [AZD6738] (first compound max 10 µM, 7x7, partner max 10 µM) | 0.029 | 0.0233 | 0.0198 | -0.0448 | -0.0464 | -0.0602 |
| CC(=O)Nc1cccc(-n2c(=O)n(C3CC3)c(=O)c3c(Nc4ccc(I)cc4F)n(C)c(=O)c(C)c32)c1 [Trametinib] + Cc1nc(-c2cn3c(n2)-c2ccc(-c4cnn(C(C)(C)C(N)=O)c4)cc2OCC3)n(C(C)C)n1 [Taselisib] (first compound max 1 µM, 7x7, partner max 10 µM) | 0.0785 | 0.209 | 0.24 | 0.0342 | 0.0284 | 0.0444 |
| CC1(C)CCC(CN2CCN(c3ccc(C(=O)NS(=O)(=O)c4ccc(NCC5CCOCC5)c([N+](=O)[O-])c4)c(Oc4cnc5[nH]ccc5c4)c3)CC2)=C(c2ccc(Cl)cc2)C1 [Venetoclax] + C1CN(CCC1(C(=O)N[C@@H](CCO)C2=CC=C(C=C2)Cl)N)C3=NC=NC4=C3C=CN4 [Capivasertib] (first compound max 1 µM, 7x7, partner max 3 µM) | 0.054 | -0.039 | -0.0202 | -0.0712 | 0.0083 | -0.026 |
| CC1(C)CCC(CN2CCN(c3ccc(C(=O)NS(=O)(=O)c4ccc(NCC5CCOCC5)c([N+](=O)[O-])c4)c(Oc4cnc5[nH]ccc5c4)c3)CC2)=C(c2ccc(Cl)cc2)C1 [Venetoclax] + C=CCn1c(=O)c2cnc(Nc3ccc(N4CCN(C)CC4)cc3)nc2n1-c1cccc(C(C)(C)O)n1 [AZD1775] (first compound max 1 µM, partner max 1 µM) | 0.025 | -0.066 | 0.0951 | 0.0151 | 0.0168 | -0.0013 |
| CC1(C)CCC(CN2CCN(c3ccc(C(=O)NS(=O)(=O)c4ccc(NCC5CCOCC5)c([N+](=O)[O-])c4)c(Oc4cnc5[nH]ccc5c4)c3)CC2)=C(c2ccc(Cl)cc2)C1 [Venetoclax] + CCN(CCO)CCCOc1ccc2c(Nc3cc(CC(=O)Nc4cccc(F)c4)[nH]n3)ncnc2c1 [AZD2811] (first compound max 1 µM, 7x7, partner max 1 µM) | 0.198 | -0.0122 | 0.0068 | 0.0185 | 0.173 | 0.0436 |

From the supplement of paper PMC11061612
